Read-outs that look alike come from different tables or passages of the source. Square brackets hold non-standard residues; d marks the D form. Peptide text beside a SMILES is read from it. Bip = N[C@@H](Cc1ccc(-c2ccccc2)cc1)C(=O)O; αMePhe(2-F) = C[C@](N)(Cc1ccccc1F)C(=O)O; Phe(2-F) = N[C@@H](Cc1ccccc1F)C(=O)O; Aib = CC(C)(N)C(=O)O
Biological target: T1, hGLP1 receptor (Homo sapiens, UniProt P43220)
T1 construct: expressed in transfected cells; host or cells: HEK (human embryonic kidney) cells co-expressing hGLP1 receptor and CRE-Luciferase
Assay: GLP-1 receptor agonism assay (HTRF cAMP, HEK cells co-expressing hGLP1 receptor and CRE-Luciferase)
Assay type: cell-based
Conditions: for Emax: HEK293, Table 6 potency profile; for EC50 / dpEC50 (contribution of Cα-methylation) / pEC50: 0% HSA; for decreased potency (Aib/Ala comparison): versus respective parent analog; for dpEC50 (contribution of Cα-methylation): dpEC50 = pEC50 (Aib) − pEC50 (Ala) − 0.97, Aib peptide versus the Ala peptide of the same line; for decreased potency by Aib substitution: Aib-scanning, versus parent analog RXL-101; for decreased potency of Aib analog versus Ala analog: same position, Ala superior to Aib
Description: Human embryonic kidney cells (HEK) co-expressing the hGLP1 receptor and CRE-Luciferase construct were used to determine agonist potency in this assay. The cells were thawed briefly at 37 °C, transferred to a sterile tube, and re-suspended in complete media at 37 °C. Cells were centrifuged at 1000 rpm for 5 min and collected; the cells were then re-suspended in an assay buffer consisting of Dulbecco’s phosphate-buffered saline (DPBS, GIBCO) with 500 μM of the phosphodiesterase inhibitor 3-isobutyl-1-methylxanthine (IBMX). The assay medium had 0% serum albumin, as specified in Table 1, Table 2, Table 3 and Table 4. The optimal cell density was determined to be 1000 cells/well. Cells were added to wells in 384-well plates containing appropriate pre-prepared dilutions of compounds (test peptides or reference compound exendin-4), sealed, and incubated with CO2 for 30 min. Test peptide solutions were diluted from 10 mM stock solutions to be used in two separate runs (performed in triplicate) from a maximal concentration of 1.0 μM, with 11 concentrations tested for each peptide using serial 1:3 dilution from this maximal concentration. […] The agonist assay was a homogeneous time-resolved fluorescence (HTRF) assay (Cisbio). Following incubation of the cells for 30 min with test or reference peptides, 5 μL of the cAMP acceptor cAMP-d2, prepared previously as a working solution from frozen stock (1:20 dilution), was added to each well of the assay plate along with 5 μL of anti-cAMP antibody-cryptate working solution (diluted 1:20 from frozen stock). The wells were incubated for 1 h at room temperature, and fluorescence was then read at 665 and 615 nm with an Envision reader with a TRF laser. Data were saved and analyzed using Prism software (GraphPad). Concentration–response analysis was performed using 4-parameter logistic fits of the resulting data, and EC50 values were obtained for each test and reference compound.

[1] = Table 2, Ala-scanning, >1000 nM = out of range, read-out: cAMP EC50
[2] = Table 4, Ala-scan peptides, read-out: pEC50 (converted)
[3] = Table 1, Phe6 modifications, average of two independent experiments in triplicate (RXL-3039 tested once), read-out: cAMP EC50

T1 sequence (P43220 24-463): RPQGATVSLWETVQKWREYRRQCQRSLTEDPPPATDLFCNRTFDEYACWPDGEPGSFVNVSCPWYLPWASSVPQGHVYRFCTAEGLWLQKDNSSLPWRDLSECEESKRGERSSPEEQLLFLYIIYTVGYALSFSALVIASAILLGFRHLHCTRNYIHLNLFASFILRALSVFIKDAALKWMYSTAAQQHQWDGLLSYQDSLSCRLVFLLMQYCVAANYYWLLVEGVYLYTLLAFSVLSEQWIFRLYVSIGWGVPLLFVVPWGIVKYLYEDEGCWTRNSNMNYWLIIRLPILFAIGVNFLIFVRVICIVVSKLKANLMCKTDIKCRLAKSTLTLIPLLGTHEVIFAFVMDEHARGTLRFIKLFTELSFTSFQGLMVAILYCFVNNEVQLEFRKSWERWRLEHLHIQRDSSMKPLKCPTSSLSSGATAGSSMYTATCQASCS

Structure (SMILES)	Emax	EC50 [1]	dpEC50 (contribution of Cα-methylation)	decreased potency by Aib substitution	further results
C[C@H](NC(=O)[C@H](CC(=O)O)NC(=O)[C@H](CO)NC(=O)[C@@H](NC(=O)[C@H](Cc1ccccc1F)NC(=O)[C@@H](NC(=O)CNC(=O)[C@H](CCC(=O)O)NC(=O)C(C)(C)NC(=O)[C@@H](N)Cc1c[nH]cn1)[C@@H](C)O)[C@@H](C)O)C(=O)N[C@@H](Cc1ccc(-c2ccccc2)cc1)C(N)=O [RXL-3008, His-Aib-Glu-Gly-Thr-Phe(2-F)-Thr-Ser-Asp-Ala-Bip-NH2] (H-H[Aib]EGT[Phe(2-F)]TSDA[Bip]-NH2)	43.6%	> 1000 nM	–	–	decreased potency by Ala substitution in RXL-3000 (Ala-scanning, versus RXL-3000): > 1000 fold; decreased potency (Aib/Ala comparison): > 10,000 fold
C[C@@H](O)[C@H](NC(=O)CNC(=O)[C@H](CCC(=O)O)NC(=O)C(C)(C)NC(=O)[C@@H](N)Cc1c[nH]cn1)C(=O)N[C@@](C)(Cc1ccccc1F)C(=O)N[C@H](C(=O)N[C@@H](CO)C(=O)N[C@@H](CC(=O)O)C(=O)N[C@@H](Cc1ccc(-c2ccccc2)cc1)C(=O)NC(C)(C)C(N)=O)[C@@H](C)O [RXL-3052, His-Aib-Glu-Gly-Thr-α-Me-Phe(2-F)-Thr-Ser-Asp-Bip-Aib-NH2] (H-H[Aib]EGT[αMePhe(2-F)]TSD[Bip][Aib]-NH2)	112%	–	1.11	–	rescue of potency by Aib versus Ala substitution (Aib analog versus Ala analog at the same position): more than 100 fold
C[C@H](NC(=O)[C@@H](N)Cc1c[nH]cn1)C(=O)N[C@@H](CCC(=O)O)C(=O)NCC(=O)N[C@H](C(=O)N[C@@H](Cc1ccccc1F)C(=O)N[C@H](C(=O)N[C@@H](CO)C(=O)N[C@@H](CC(=O)O)C(=O)N[C@@H](Cc1ccc(-c2ccccc2)cc1)C(=O)N[C@@H](Cc1ccc(-c2ccccc2)cc1)C(N)=O)[C@@H](C)O)[C@@H](C)O [RXL-3002, His-Ala-Glu-Gly-Thr-Phe(2-F)-Thr-Ser-Asp-Bip-Bip-NH2]	102%	0.2 nM	–	–	–
C[C@@H](O)[C@H](NC(=O)CNC(=O)C(C)(C)NC(=O)C(C)(C)NC(=O)[C@@H](N)Cc1c[nH]cn1)C(=O)N[C@@](C)(Cc1ccccc1F)C(=O)N[C@H](C(=O)N[C@@H](CO)C(=O)N[C@@H](CC(=O)O)C(=O)N[C@@H](Cc1ccc(-c2ccccc2)cc1)C(=O)N[C@@H](Cc1ccc(-c2ccccc2)cc1)C(N)=O)[C@@H](C)O [RXL-3031, His-Aib-Aib-Gly-Thr-α-Me-Phe(2-F)-Thr-Ser-Asp-Bip-Bip-NH2] (H-H[Aib][Aib]GT[αMePhe(2-F)]TSD[Bip][Bip]-NH2)	121%	–	−1.13	–	pEC50 (Table 4, Aib-scan peptides): 8.31
C[C@@H](O)[C@H](NC(=O)CNC(=O)[C@H](CCC(=O)O)NC(=O)C(C)(C)NC(=O)C(C)(C)N)C(=O)N[C@@](C)(Cc1ccccc1F)C(=O)N[C@H](C(=O)N[C@@H](CO)C(=O)N[C@@H](CC(=O)O)C(=O)N[C@@H](Cc1ccc(-c2ccccc2)cc1)C(=O)N[C@@H](Cc1ccc(-c2ccccc2)cc1)C(N)=O)[C@@H](C)O [RXL-3030, Aib-Aib-Glu-Gly-Thr-α-Me-Phe(2-F)-Thr-Ser-Asp-Bip-Bip-NH2] (H-[Aib][Aib]EGT[αMePhe(2-F)]TSD[Bip][Bip]-NH2)	112%	–	−0.26	< 10 fold	–
C[C@H](NC(=O)[C@@H](NC(=O)CNC(=O)[C@H](CCC(=O)O)NC(=O)C(C)(C)NC(=O)[C@@H](N)Cc1c[nH]cn1)[C@@H](C)O)C(=O)N[C@H](C(=O)N[C@@H](CO)C(=O)N[C@@H](CC(=O)O)C(=O)N[C@@H](Cc1ccc(-c2ccccc2)cc1)C(=O)N[C@@H](Cc1ccc(-c2ccccc2)cc1)C(N)=O)[C@@H](C)O [RXL-3038, His-Aib-Glu-Gly-Thr-Ala-Thr-Ser-Asp-Bip-Bip-NH2] (H-H[Aib]EGTATSD[Bip][Bip]-NH2)	37.4%	> 1000 nM	–	–	pEC50 (Table 4, Ala-scan peptides): 5.55; decreased potency (Aib/Ala comparison): > 1000 fold
C[C@H](NC(=O)[C@@H](NC(=O)[C@H](Cc1ccccc1F)NC(=O)[C@@H](NC(=O)CNC(=O)[C@H](CCC(=O)O)NC(=O)C(C)(C)NC(=O)[C@@H](N)Cc1c[nH]cn1)[C@@H](C)O)[C@@H](C)O)C(=O)N[C@@H](CC(=O)O)C(=O)N[C@@H](Cc1ccc(-c2ccccc2)cc1)C(=O)N[C@@H](Cc1ccc(-c2ccccc2)cc1)C(N)=O [RXL-3006, His-Aib-Glu-Gly-Thr-Phe(2-F)-Thr-Ala-Asp-Bip-Bip-NH2] (H-H[Aib]EGT[Phe(2-F)]TAD[Bip][Bip]-NH2)	120%	8.5 nM	–	–	EC50 [2]: 1.91 nM
C[C@@H](O)[C@H](NC(=O)CNC(=O)[C@H](CCC(=O)O)NC(=O)C(C)(C)NC(=O)[C@@H](N)Cc1c[nH]cn1)C(=O)N[C@@](C)(Cc1ccccc1F)C(=O)N[C@H](C(=O)N[C@@H](CO)C(=O)NC(C)(C)C(=O)N[C@@H](Cc1ccc(-c2ccccc2)cc1)C(=O)N[C@@H](Cc1ccc(-c2ccccc2)cc1)C(N)=O)[C@@H](C)O [RXL-3036, His-Aib-Glu-Gly-Thr-α-Me-Phe(2-F)-Thr-Ser-Aib-Bip-Bip-NH2] (H-H[Aib]EGT[αMePhe(2-F)]TS[Aib][Bip][Bip]-NH2)	96.7%	–	−2.26	≥ 100 fold	pEC50 (Table 4, Aib-scan peptides): 7.04; decreased potency of Aib analog versus Ala analog: about fivefold
C[C@@H](O)[C@H](NC(=O)CNC(=O)[C@H](CCC(=O)O)NC(=O)C(C)(C)NC(=O)[C@@H](N)Cc1c[nH]cn1)C(=O)N[C@@H](Cc1ccccc1Cl)C(=O)N[C@H](C(=O)N[C@@H](CO)C(=O)N[C@@H](CC(=O)O)C(=O)N[C@@H](Cc1ccc(-c2ccccc2)cc1)C(=O)N[C@@H](Cc1ccc(-c2ccccc2)cc1)C(N)=O)[C@@H](C)O [RXL-3011, His-Aib-Glu-Gly-Thr-Phe(2-Cl)-Thr-Ser-Asp-Bip-Bip-NH2]	91.3%	–	–	–	EC50 [3]: 0.9 nM
C[C@@H](O)[C@H](NC(=O)CNC(=O)[C@H](CCC(=O)O)NC(=O)C(C)(C)NC(=O)[C@@H](N)Cc1c[nH]cn1)C(=O)N[C@@H](Cc1cccc(C(F)(F)F)c1)C(=O)N[C@H](C(=O)N[C@@H](CO)C(=O)N[C@@H](CC(=O)O)C(=O)N[C@@H](Cc1ccc(-c2ccccc2)cc1)C(=O)N[C@@H](Cc1ccc(-c2ccccc2)cc1)C(N)=O)[C@@H](C)O [RXL-3016, His-Aib-Glu-Gly-Thr-Phe(3-CF3)-Thr-Ser-Asp-Bip-Bip-NH2]	109%	–	–	–	EC50 [3]: 13.9 nM
C[C@@H](O)[C@H](NC(=O)CNC(=O)[C@H](CCC(=O)O)NC(=O)C(C)(C)NC(=O)[C@@H](N)Cc1c[nH]cn1)C(=O)N[C@@](C)(Cc1ccccc1F)C(=O)NC(C)(C)C(=O)N[C@@H](CO)C(=O)N[C@@H](CC(=O)O)C(=O)N[C@@H](Cc1ccc(-c2ccccc2)cc1)C(=O)N[C@@H](Cc1ccc(-c2ccccc2)cc1)C(N)=O [RXL-3034, His-Aib-Glu-Gly-Thr-α-Me-Phe(2-F)-Aib-Ser-Asp-Bip-Bip-NH2] (H-H[Aib]EGT[αMePhe(2-F)][Aib]SD[Bip][Bip]-NH2)	106%	–	−1.60	≥ 100 fold	pEC50 (Table 4, Aib-scan peptides): 7.04; decreased potency of Aib analog versus Ala analog: about 10 fold
C[C@H](NC(=O)[C@H](Cc1ccccc1F)NC(=O)[C@@H](NC(=O)CNC(=O)[C@H](CCC(=O)O)NC(=O)C(C)(C)NC(=O)[C@@H](N)Cc1c[nH]cn1)[C@@H](C)O)C(=O)N[C@@H](CO)C(=O)N[C@@H](CC(=O)O)C(=O)N[C@@H](Cc1ccc(-c2ccccc2)cc1)C(=O)N[C@@H](Cc1ccc(-c2ccccc2)cc1)C(N)=O [RXL-3005, His-Aib-Glu-Gly-Thr-Phe(2-F)-Ala-Ser-Asp-Bip-Bip-NH2] (H-H[Aib]EGT[Phe(2-F)]ASD[Bip][Bip]-NH2)	102%	47.5 nM	–	–	EC50 [2]: 21.4 nM
C[C@@H](O)[C@H](NC(=O)CNC(=O)[C@H](CCC(=O)O)NC(=O)C(C)(C)NC(=O)[C@@H](N)Cc1c[nH]cn1)C(=O)N[C@@](C)(Cc1ccccc1F)C(=O)N[C@H](C(=O)N[C@@H](CO)C(=O)N[C@@H](CC(=O)O)C(=O)NC(C)(C)C(=O)N[C@@H](Cc1ccc(-c2ccccc2)cc1)C(N)=O)[C@@H](C)O [RXL-3051, His-Aib-Glu-Gly-Thr-α-Me-Phe(2-F)-Thr-Ser-Asp-Aib-Bip-NH2] (H-H[Aib]EGT[αMePhe(2-F)]TSD[Aib][Bip]-NH2)	26.8%	–	−1.34	≥ 100 fold	decreased potency (Aib/Ala comparison): > 10,000 fold

— paper PMC11721672, “Design, Structure–Activity Relationships, and Computational Modeling Studies of a Series of α-Helix Biased, Ultra-Short Glucagon-like Peptide-1 Receptor Agonists” (Molecules, 2024)
